pIC50: −log10 of the molar value. Read-outs that look alike come from different tables or passages of the source. Bounds are passed on as bounds.

Assay [1] concerns the target T1, CDK2/Cyclin E (Homo sapiens, UniProt P24941).
T1 construct: His; made in house; host or cells: Sf9 insect cells (baculovirus)
The assay can be described thus: CDK2/cyclin E kinase assay (GST-Rb phosphorylation).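 Note: enzyme source: His-tagged CDK2/cyclin E complex co-expressed recombinantly in Sf9 insect cells using baculovirus constructs.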 The assay is classed as biochemical.

For assay [2], the target named is CDK2/cyclin A (Homo sapiens, UniProt P24941). The assay is described as follows: CDK2/cyclin A kinase assay.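 Note: Read-out is incorporated radioactivity retained on P81 filter plates and quantified by scintillation counting.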 The assay is classed as biochemical.
Experimental: Reactions were stopped on ice, followed by filtration through p81 filterplates (Whatman Polyfiltronics, Kent, UK). After washing 3 times with 75 mM orthophosphoric acid, plates were dried, scintillant added and incorporated radioactivity measured in a scintillation counter (TopCount, Packard Instruments, Pangboume, Berks, UK).
In assay [3] the target is CDK4/Cyclin D1 (Homo sapiens, UniProt P11802). The assay can be described thus: CDK4/cyclin D1 kinase assay (GST-Rb phosphorylation). The format is biochemical.
CDK4/Cyclin D1, sequence (P11802 whole entry, species assumed): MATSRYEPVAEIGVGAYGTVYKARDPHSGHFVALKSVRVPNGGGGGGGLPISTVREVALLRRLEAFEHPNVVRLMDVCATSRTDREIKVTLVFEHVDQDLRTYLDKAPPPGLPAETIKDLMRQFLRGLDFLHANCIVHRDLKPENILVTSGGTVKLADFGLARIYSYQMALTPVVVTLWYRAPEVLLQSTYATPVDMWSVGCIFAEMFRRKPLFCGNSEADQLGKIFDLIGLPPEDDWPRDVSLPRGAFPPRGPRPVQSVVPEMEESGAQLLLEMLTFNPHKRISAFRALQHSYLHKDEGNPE
CDK4/Cyclin D1, sequence (P24385 whole entry partner, species assumed): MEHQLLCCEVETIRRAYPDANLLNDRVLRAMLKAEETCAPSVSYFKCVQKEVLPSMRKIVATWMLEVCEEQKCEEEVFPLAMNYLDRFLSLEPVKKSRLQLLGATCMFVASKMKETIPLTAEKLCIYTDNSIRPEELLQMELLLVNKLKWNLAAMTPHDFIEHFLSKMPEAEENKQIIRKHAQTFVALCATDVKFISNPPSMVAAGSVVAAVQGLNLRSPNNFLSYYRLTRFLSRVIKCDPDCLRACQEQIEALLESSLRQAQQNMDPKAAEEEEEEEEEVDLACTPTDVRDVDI
Assay [4] concerns the target CDK7/cyclin H (Homo sapiens, UniProt P50613). The assay is described as follows: CDK7 assay (CTD peptide substrate). The format is biochemical. Here is the method: (§1) CTD peptide substrate (biotinyl-Ahx-(Tyr-Ser-Pro-Thr-Ser-Pro-Ser)4-NH2; 1-2 mg/mL) and recombinant human CDK7/cyclin H, CDK9/cyclin T1, or CDK9/cyclin K (0.5-2 μg) were incubated for 45 min at 30° C. in the presence of varying amounts of test compound in 20 mM MOPS pH 7.2, 25 mM β-glycerophosphate, 5 mM EGTA, 1 mM DTT, 1 mM sodium vanadate, 15 mM MgCl2, and 100 μM ATP (containing a trace amount of ^32PγATP) in a total volume of 25 μL in a 96-well microtiter plate. The reaction was stopped by placing the plate on ice for 2 min. Avidin (50 μg) was added to each well, and the plate was incubated at room temp for 30 min. The samples were transferred to a 96-well P81 filter plate, and washed (4×200 μL per well) with 75 mM phosphoric acid. Microscint 40 scintillation liquid (50 μL) was added to each well, and the amount of ^32P incorporation for each sample was measured using a Packard Topcount microplate scintillation counter.

For assay [5], the target named is CDK9/cyclin T1 (Homo sapiens, UniProt P50750). The assay is described as follows: CDK9 assay (CTD peptide substrate). The format is biochemical. Here is the method:
as §1

For assay [6], the target named is CDK1/Cyclin B (Homo sapiens, UniProt P06493). The assay can be described thus: CDK1/cyclin B kinase assay (GST-Rb phosphorylation).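 Note: Enzyme: His-tagged CDK1/Cyclin B co-expressed in baculovirus-infected Sf9 insect cells, purified via metal-chelate chromatography.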
CDK1/Cyclin B, sequence (P06493 whole entry, species assumed): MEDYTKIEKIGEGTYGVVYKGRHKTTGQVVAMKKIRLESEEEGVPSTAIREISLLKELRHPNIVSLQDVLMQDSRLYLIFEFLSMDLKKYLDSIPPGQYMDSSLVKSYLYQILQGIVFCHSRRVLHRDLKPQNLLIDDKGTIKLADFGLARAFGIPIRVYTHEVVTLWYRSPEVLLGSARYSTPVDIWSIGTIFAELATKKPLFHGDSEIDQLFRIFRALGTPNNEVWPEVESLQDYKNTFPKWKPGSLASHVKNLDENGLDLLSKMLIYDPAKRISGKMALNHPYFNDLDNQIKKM
CDK1/Cyclin B, sequence (P14635 whole entry partner, species assumed): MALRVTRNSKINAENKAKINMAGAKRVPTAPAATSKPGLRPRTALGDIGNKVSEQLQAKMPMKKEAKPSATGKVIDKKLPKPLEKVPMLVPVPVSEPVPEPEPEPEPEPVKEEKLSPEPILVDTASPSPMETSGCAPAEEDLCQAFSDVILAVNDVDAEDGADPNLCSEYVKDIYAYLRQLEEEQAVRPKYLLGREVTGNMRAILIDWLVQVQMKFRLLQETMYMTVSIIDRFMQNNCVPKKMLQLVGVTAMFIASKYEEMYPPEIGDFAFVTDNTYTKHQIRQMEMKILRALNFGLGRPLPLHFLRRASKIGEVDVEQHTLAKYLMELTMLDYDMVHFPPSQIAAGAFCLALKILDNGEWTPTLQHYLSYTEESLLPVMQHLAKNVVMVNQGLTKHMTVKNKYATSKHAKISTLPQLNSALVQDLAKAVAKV
Setting [7] is: Table 3, read-out: Average IC50 CDK2 cyclin E1.
Setting [8] is: Table 3, read-out: Average IC50 CDK2 cyclin A2.
[9] abbreviates: Table 3, read-out: Average IC50 CDK4 cyclin D1.
[10] abbreviates: Table 3, read-out: Average IC50 CDK7 cyclin H.
Setting [11] is: Table 3, read-out: Average IC50 CDK9 cyclin T1.
Where [12] appears, read: Table 4, read-out: Kinase Inhibition IC50 CDK2-cyclin E.
Setting [13] is: Table 4, read-out: Kinase Inhibition IC50 CDK2-cyclin A.
Where [14] appears, read: Table 4, read-out: Kinase Inhibition IC50 CDK7-cyclin H.
The mark [15] stands for this setting: Table 4, read-out: Kinase Inhibition IC50 CDK4-cyclin D1.
Setting [16] is: Table 4, read-out: Kinase Inhibition IC50 CDK9-cyclin T1.

CDK7/cyclin H, sequence (P50613 whole entry): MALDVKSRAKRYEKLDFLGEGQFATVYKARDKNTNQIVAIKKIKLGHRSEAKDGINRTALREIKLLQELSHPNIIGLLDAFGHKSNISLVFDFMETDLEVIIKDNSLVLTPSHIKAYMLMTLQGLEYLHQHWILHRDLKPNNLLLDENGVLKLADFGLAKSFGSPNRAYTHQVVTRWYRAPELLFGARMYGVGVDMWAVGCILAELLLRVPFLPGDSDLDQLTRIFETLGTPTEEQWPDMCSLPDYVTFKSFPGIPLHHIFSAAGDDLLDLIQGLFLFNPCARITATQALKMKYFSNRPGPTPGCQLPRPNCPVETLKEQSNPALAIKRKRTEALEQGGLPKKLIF
CDK7/cyclin H, sequence (P51946 whole entry partner): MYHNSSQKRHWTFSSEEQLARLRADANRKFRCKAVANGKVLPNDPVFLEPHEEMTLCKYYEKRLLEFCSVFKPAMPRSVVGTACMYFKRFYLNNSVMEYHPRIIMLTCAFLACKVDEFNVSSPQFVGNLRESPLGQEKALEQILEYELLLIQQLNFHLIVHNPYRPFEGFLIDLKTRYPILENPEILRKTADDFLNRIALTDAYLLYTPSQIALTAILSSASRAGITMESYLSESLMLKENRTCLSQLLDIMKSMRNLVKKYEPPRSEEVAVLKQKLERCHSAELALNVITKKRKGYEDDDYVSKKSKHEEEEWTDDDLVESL
CDK9/cyclin T1, sequence (P50750 whole entry): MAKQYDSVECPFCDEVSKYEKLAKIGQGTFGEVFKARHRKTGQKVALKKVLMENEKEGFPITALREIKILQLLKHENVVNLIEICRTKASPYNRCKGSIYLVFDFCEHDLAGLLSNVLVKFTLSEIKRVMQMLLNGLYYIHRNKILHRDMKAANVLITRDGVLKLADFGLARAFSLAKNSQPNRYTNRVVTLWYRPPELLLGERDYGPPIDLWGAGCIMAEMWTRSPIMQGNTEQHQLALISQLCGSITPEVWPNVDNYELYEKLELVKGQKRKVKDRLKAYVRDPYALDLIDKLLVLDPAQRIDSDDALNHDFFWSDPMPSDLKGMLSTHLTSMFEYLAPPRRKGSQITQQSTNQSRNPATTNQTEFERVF
CDK9/cyclin T1, sequence (O60563 whole entry partner): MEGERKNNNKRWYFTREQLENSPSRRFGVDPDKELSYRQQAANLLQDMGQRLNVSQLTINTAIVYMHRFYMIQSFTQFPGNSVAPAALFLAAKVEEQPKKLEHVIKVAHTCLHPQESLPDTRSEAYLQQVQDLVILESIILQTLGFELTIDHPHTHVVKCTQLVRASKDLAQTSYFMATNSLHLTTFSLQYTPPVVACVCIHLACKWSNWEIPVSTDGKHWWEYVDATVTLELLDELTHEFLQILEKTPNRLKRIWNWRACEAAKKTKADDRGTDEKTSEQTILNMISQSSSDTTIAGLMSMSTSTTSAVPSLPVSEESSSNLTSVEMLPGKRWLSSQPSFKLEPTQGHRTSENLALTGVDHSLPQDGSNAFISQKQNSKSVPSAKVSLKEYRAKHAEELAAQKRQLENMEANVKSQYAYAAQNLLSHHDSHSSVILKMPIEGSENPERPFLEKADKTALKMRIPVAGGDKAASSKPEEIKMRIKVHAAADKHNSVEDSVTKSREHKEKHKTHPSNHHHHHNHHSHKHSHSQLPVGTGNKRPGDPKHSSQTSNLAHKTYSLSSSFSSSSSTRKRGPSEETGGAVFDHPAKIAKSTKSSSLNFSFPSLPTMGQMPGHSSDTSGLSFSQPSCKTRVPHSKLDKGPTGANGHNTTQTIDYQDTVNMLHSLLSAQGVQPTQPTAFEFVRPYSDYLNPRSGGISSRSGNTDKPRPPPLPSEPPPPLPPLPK

Broadly, the pIC50 is −log10 of the IC50, conventionally taken in molar units. Take `Cc1nc(N)sc1-c1ccnc(Nc2cccc(N)c2)n1` [Compound 149, N-[4-(2-Amino-4-methyl-thiazol-5-yl)-pyrimidin-2-yl]-benzene-1,3-diamine]: the pIC50 was 6.60 in assay [1] (setting [7]); 6.28 in assay [2] (setting [8]); 6.30 in assay [3] (setting [9]); 6.00 in assay [4] (setting [10]); 7.23 in assay [5] (setting [11]); 6.15 in assay [6].
For `Cc1nc(C)c(-c2ccnc(Nc3ccccc3)n2)s1` [Compound 150, [4-(2,4-Dimethyl-thiazol-5-yl)-pyrimidin-2-yl]-phenyl-amine], the negative logarithm of the IC50 (pIC50) in assay [1] (setting [7]) was 6.80; in assay [2] (setting [8]), 6.39; in assay [3] (setting [9]), 5.31; in assay [4] (setting [10]), 4.96; in assay [6], 5.82.
Turning to `CCNc1nc(C)c(-c2ccnc(Nc3cccc(OC)c3)n2)s1` [Compound 136, [4-(2-Ethylamino-4-methyl-thiazol-5-yl)-pyrimidin-2-yl]-(3-methoxy-phenyl)-amine], the pIC50 in assay [1] (setting [7]) was 5.17; in assay [2] (setting [8]), 4.41; in assay [6], less than 4.00.
`Cc1nc(C)c(-c2ccnc(Nc3cccc(C(F)(F)F)c3)n2)s1` [Compound 13, [4-(2,4-Dimethyl-thiazol-5-yl)-pyrimidin-2-yl]-(3-trifluoromethyl-phenyl)-amine]: the pIC50 was 4.66 in assay [1] (setting [7]); less than 4.00 in assay [2] (setting [8]); less than 4.00 in assay [3] (setting [9]); less than 4.00 in assay [4] (setting [10]); 4.07 in assay [5] (setting [11]); less than 4.00 in assay [6].
As for `COc1ccc(Nc2nccc(-c3sc(C)nc3C)n2)cc1O` [Compound 126, 5-[4-(2,4-Dimethyl-thiazol-5-yl)-pyrimidin-2-ylamino]-2-methoxy-phenol], the pIC50 in assay [1] (setting [7]) was 6.85; in assay [2] (setting [8]), 6.51; in assay [3] (setting [9]), 5.77; in assay [5] (setting [11]), 5.89; in assay [6] it was 5.80.
For `Cc1c(-c2ccnc(Nc3ccc(F)c([N+](=O)[O-])c3)n2)sc(=O)n1C` [Compound 159, 5-[2-(4-Fluoro-3-nitro-phenylamino)-pyrimidin-4-yl]-3,4-dimethyl-3H-thiazol-2-one], the pIC50 in assay [1] (setting [12]) was 7.11; in assay [2] (setting [13]) it was 6.59; in assay [4] (setting [14]), 5.96; in assay [6] it was 6.09.
Take `CCNc1nc(C)c(-c2ccnc(Nc3ccc(C)c([N+](=O)[O-])c3)n2)s1` [Compound 138, [4-(2-Ethylamino-4-methyl-thiazol-5-yl)-pyrimidin-2-yl]-(4-methyl-3-nitro-phenyl)-amine]: the negative-log IC50 (pIC50) is 5.57 in assay [1] (setting [7]), 5.02 in assay [2] (setting [8]) and 4.39 in assay [6].
For `Cc1c(-c2ccnc(Nc3cccc(O)c3)n2)sc(=O)n1C` [Compound 158, 5-[2-(3-Hydroxy-phenylamino)-pyrimidin-4-yl]-3,4-dimethyl-3H-thiazol-2-one], the pIC50 in assay [1] (setting [12]) was 7.03; in assay [2] (setting [13]), 7.07; in assay [3] (setting [15]) it was 6.00; in assay [4] (setting [14]), 5.89; in assay [6] it was 6.43.
In the case of `Cc1cc(Nc2nccc(-c3sc(=O)n(C)c3C)n2)ccc1Cl` [Compound 160, 5-[2-(4-Chloro-3-methyl-phenylamino)-pyrimidin-4-yl]-3,4-dimethyl-3H-thiazol-2-one], the pIC50 in assay [1] (setting [12]) was 5.77; in assay [2] (setting [13]), 5.92; in assay [3] (setting [15]), 4.74; in assay [5] (setting [16]) it was 6.82; in assay [6], 5.74.
`Cc1nc(N)sc1-c1ccnc(Nc2cccc(F)c2)n1` [Compound 109, [4-(2-Amino-4-methyl-thiazol-5-yl)-pyrimidin-2-yl]-(3-fluoro-phenyl)-amine]: the negative-log IC50 (pIC50) in assay [1] (setting [7]) is 6.42; in assay [2] (setting [8]), 5.85; in assay [3] (setting [9]), 5.92; in assay [6], 5.54.
Consider `Cc1ccc(Nc2nccc(-c3sc(=O)n(C)c3C)n2)cc1I` [Compound 161, 5-[2-(3-Iodo-4-methyl-phenylamino)-pyrimidin-4-yl]-3,4-dimethyl-3H-thiazol-2-one], for which the pIC50 was 5.49 in assay [1] (setting [12]); 6.15 in assay [2] (setting [13]); 5.40 in assay [3] (setting [15]); 6.96 in assay [5] (setting [16]); 5.68 in assay [6].
Take `Cc1nc(C)c(-c2ccnc(Nc3ccc(CCO)cc3)n2)s1` [Compound 123, 2-{4-[4-(2,4-Dimethyl-thiazol-5-yl)-pyrimidin-2-ylamino]-phenyl}-ethanol]: the negative-log IC50 (pIC50) in assay [1] (setting [7]) was 6.33; in assay [2] (setting [8]), 6.24; in assay [3] (setting [9]), 5.48; in assay [6], 5.72.
For `CCCCNc1nc(C)c(-c2ccnc(Nc3ccc(F)cc3)n2)s1` [Compound 139, [4-(2-Butylamino-4-methyl-thiazol-5-yl)-pyrimidin-2-yl]-(4-fluoro-phenyl)-amine], the negative-log IC50 (pIC50) in assay [1] (setting [7]) is 5.77; in assay [2] (setting [8]) it was 4.60; in assay [3] (setting [9]) it was 4.52; in assay [5] (setting [11]), 4.64; in assay [6] it was 4.33.
As for `Cc1nc(C)c(-c2ccnc(Nc3ccc(S(=O)(=O)O)cc3)n2)s1` [Compound 148, 4-[4-(2,4-Dimethyl-thiazol-5-yl)-pyrimidin-2-ylamino]-benzenesulfonic acid], the negative-log IC50 (pIC50) in assay [1] (setting [7]) was 7.55; in assay [2] (setting [8]), 9.00; in assay [3] (setting [9]), 5.42; in assay [4] (setting [10]) it was 4.96; in assay [6], 7.32.
With `Cc1c(-c2ccnc(Nc3ccc(N(C)C)cc3)n2)sc(=O)n1C` [Compound 164, 5-[2-(4-Dimethylamino-phenylamino)-pyrimidin-4-yl]-3,4-dimethyl-3H-thiazol-2-one], the pIC50 in assay [3] (setting [15]) was 6.00; in assay [4] (setting [14]), 5.74; in assay [5] (setting [16]), 6.89; in assay [6], 5.66.
In the case of `COc1cccc(Nc2nccc(-c3sc(N)nc3C)n2)c1` [Compound 108, [4-(2-Amino-4-methyl-thiazol-5-yl)-pyrimidin-2-yl]-(3-methoxy-phenyl)-amine], the pIC50 is 6.41 in assay [1] (setting [7]), 6.04 in assay [2] (setting [8]), 5.82 in assay [3] (setting [9]) and 5.55 in assay [6].
Turning to `COc1ccc(Nc2nccc(-c3sc(C)nc3C)n2)cc1N(C)C` [Compound 130, N^1-[4-(2,4-Dimethyl-thiazol-5-yl)-pyrimidin-2-yl]-4-methoxy-N^3,N^3-dimethyl-benzene-1,3-diamine], the negative logarithm of the IC50 (pIC50) in assay [1] (setting [7]) is 5.96; in assay [2] (setting [8]), 6.17; in assay [3] (setting [9]), 5.39; in assay [4] (setting [10]), 5.31; in assay [6] it was 6.33.
Regarding `CCN(CCO)c1ccc(Nc2nccc(-c3sc(C)nc3C)n2)cc1` [Compound 124, 2-({4-[4-(2,4-Dimethyl-thiazol-5-yl)-pyrimidin-2-ylamino]-phenyl}-ethyl-amino)-ethanol], the negative-log IC50 (pIC50) was 5.52 in assay [1] (setting [7]), 5.43 in assay [2] (setting [8]), 5.17 in assay [3] (setting [9]) and 5.07 in assay [6].
Regarding `Cc1c(-c2ccnc(Nc3ccc(Cl)cc3)n2)sc(=O)n1C` [Compound 156, 5-[2-(4-Chloro-phenylamino)-pyrimidin-4-yl]-3,4-dimethyl-3H-thiazol-2-one], the results for the pIC50 in assay [2] (setting [13]), in assay [4] (setting [14]) and in assay [6] were 6.57, 5.06 and 5.85, respectively.

(Values after patent publication US20050288307A1, “Anti-viral compounds” (priority 2002, published 2005).)
